Values after ≈ are worked out from the molar mass of the structure shown. Like-named read-outs stand apart in the source and are kept apart here.
What was measured:
KM mice = experiment: Acetic acid induced writhing test; type: in vivo; conditions: 30 mg/kg s.c.; for No. of writhing's: 0.6% acetic acid 15 min after dosing, 30-minute period; for Percentage of Inhibition / Significant compared to the model group: writhing
Procedure: Fifteen minutes after administration, a 0.6% acetic acid solution (5 mL/kg) was injected into the abdominal cavity. The mice were then placed in an observation box, and the number of writhing episodes was recorded within a 30-minute period. The assessment of pain intensity was based on the observation of the mice's writhing behavior.

[1] = Metabolic stability in liver microsomes (rat); type: in vitro ADME; conditions: for CLint scaled at 1 μM: pH 7.4; for half-life at 1 μM: pH 7.4, read-out: Metabolic stability T½
Procedure: Buffers A-C were prepared for use in the metabolic study. The buffers were as follows: Buffer A: 1.0 L of 0.1 M monobasic Potassium Phosphate buffer containing 1.0 mM EDTA; Buffer B: 1.0 L of 0.1 M Dibasic Potassium Phosphate buffer containing 1.0 mM EDTA; and Buffer C: 0.1 M Potassium Phosphate buffer, 1.0 mM EDTA, pH 7.4 by titrating 700 mL of buffer B with buffer A while monitoring with the pH meter.
Ketanserin was used as the reference compound. Reference compound and test compound spiking solutions (500 μM spiking solution) were prepared by adding 10 μL of 10 mM DMSO stock solution into 190 μL ACN. 1.5 μL of 500 μM spiking solution (0.75 mg/mL) and 18.75 μL of 20 mg/mL liver microsomes were added into 479.75 μL of Buffer C on ice.
A 6 mM NADPH stock solution was prepared by dissolving an appropriate amount of NADPH into buffer C. 30 μL of 1.5 μM spiking solution containing 0.75 mg/mL microsomes solution was dispensed to the assay plates designated for different time points (0-, 5-, 15-, 30-, 45-min) on ice. […] All the other plates were pre-incubated at 37° C. for 5 minutes. 15 μL of 6 mM NADPH stock solution was added to the plates to start the reaction and time. At 5-min, 15-min, 30-min, and 45-min, 135 μL of ACN containing internal standard were added to the wells of corresponding plates, respectively, to stop the reaction. […]

Solubility = type: physicochemical; conditions: aqueous buffer, kinetic from dmso stock; PBS(Ph 7.4), 1 hour shaking at room temperature; read-out: Solubility SolubilityU (um)
Procedure: 10 μL test compound was added to 990 μL buffer. Sample tubes were shaken for 1 hour (1000 rpm) at room temperature. Samples were centrifuged for 10 minutes at 1200 rpm to precipitate un-dissolved particles. Supernatants were collected for LCMSMS or LC-UV analysis.

Thermodynamic solubility = type: physicochemical; conditions: aqueous buffer, thermodynamic from solid, PBS(Ph 7.4), equilibrated over night at room temperature
Procedure: Assay buffer was added into compound powder to make 4 mg/ml solution. Sample tubes were shaken for 1 hour at 1000 rpm, then equilibrated over night at room temperature. Samples were centrifuged for 10 minutes at 12000 rpm to precipitate out un-dissolved particles. Supernatants were transferred to new tubes. Concentrations of the supernatants after centrifugation were determined by LCMSMS detection.

CYP2C9 = target: T1, CYP2C9 (Homo sapiens, UniProt P11712); experiment: CYP inhibition in HLM, CYP2C9; type: in vitro ADME; conditions: read-out: CYP inhibition (IC50 um) 2C9
T1 construct: from tissue; host or cells: liver microsomes (HLM)
T1 sequence (P11712 whole entry): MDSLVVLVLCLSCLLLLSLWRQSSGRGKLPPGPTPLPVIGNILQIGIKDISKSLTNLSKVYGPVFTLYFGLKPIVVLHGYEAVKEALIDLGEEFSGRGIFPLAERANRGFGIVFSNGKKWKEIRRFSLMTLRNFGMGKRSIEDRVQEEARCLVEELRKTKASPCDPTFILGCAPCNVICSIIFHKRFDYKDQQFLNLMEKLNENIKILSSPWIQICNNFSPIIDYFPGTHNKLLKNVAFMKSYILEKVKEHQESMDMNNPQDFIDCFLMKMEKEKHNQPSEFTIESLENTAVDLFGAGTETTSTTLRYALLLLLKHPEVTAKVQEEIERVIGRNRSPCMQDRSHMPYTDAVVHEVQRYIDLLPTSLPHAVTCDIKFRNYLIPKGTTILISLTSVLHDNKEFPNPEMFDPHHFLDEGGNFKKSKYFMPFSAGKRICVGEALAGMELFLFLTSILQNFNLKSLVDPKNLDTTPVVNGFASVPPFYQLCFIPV
Procedure: (§1) 0.1 M potassium phosphate buffer (K-buffer), pH 7.4 was preheated. K-buffer was prepared by mixing 9.5 mL Stock A into 40.5 mL Stock B. The total volume was brought to 500 mL with Milli-Q water. The buffer was titrated with KOH or H3PO4 to pH 7.4. Stock A (1 M monobasic potassium phosphate) was prepared by adding 136.5 g of monobasic potassium phosphate into 1 L of Milli-Q water. Stock B (1 M dibasic potassium phosphate) was prepared by adding 174.2 g of dibasic potassium phosphate in 1 L of Milli-Q water.
(§2) Serial dilution for test compound and reference inhibitors (400×) was prepared in a 96-well plate. 8 μL of 10 mM test compounds was transferred to 12 μL of ACN. Inhibitor spiking solution was prepared for CYP1A2, CYP2C9 and CYP2D6 in cocktail by adding 12 μL of 1 mM α-Naphthoflavon, 10 μL of 40 mM Sulfaphenazole, 10 μL of 10 mM Quinidine, and 8 μL of DMSO. Individual inhibitor spiking solution for CYP3A4 and CYP2C19 was prepared by adding 8 μL of DMSO stock to 12 μL of ACN. 1:3 serial dilutions were performed in DMSO:ACN mixture (v/v: 40:60).
(§3) NADPH cofactor was prepared by dissolving 66.7 mg NADPH in 10 mL 0.1 M K-buffer, pH7.4. 4×substrate (2 mL for each isoform) was prepared. HLM was added were required on ice. 0.2 mg/mL HLM solution was prepared using 10 μL of 20 mg/mL to 990 μL of 0.1 M K-buffer on ice. 400 μL of 0.2 mg/mL HLM were added to the assay wells and then 2 μL of 400×test compound set were added into the designated wells on ice. 200 μL of 0.2 mg/mL HLM was added to the assay wells and followed by 1 μL of serially diluted reference inhibtor solution into the designated wells on ice. The following solutions were added in duplicated in a 96-well plate on ice: 30 μL of 2×test compound and reference compound in 0.2 mg/mL HLM solution and 15 μL of 4×substrate solution. The 96-well assay plate and NADPH solution were pre-incubated at 37° C. for 5 minutes. 15 μL of pre-warmed 8 mM NADPH solution was added to into the assay plates to initiate the reaction. The assay plate was incubated at 37° C. 5 mins, 10 mins, and 45 mins. […]

CYP2C19 = target: T2, CYP2C19 (Homo sapiens, UniProt P33261); experiment: CYP inhibition in HLM, CYP2C19; type: in vitro ADME; conditions: read-out: CYP inhibition (IC50 um) 2C19
T2 construct: from tissue; host or cells: liver microsomes (HLM)
T2 sequence (P33261 whole entry): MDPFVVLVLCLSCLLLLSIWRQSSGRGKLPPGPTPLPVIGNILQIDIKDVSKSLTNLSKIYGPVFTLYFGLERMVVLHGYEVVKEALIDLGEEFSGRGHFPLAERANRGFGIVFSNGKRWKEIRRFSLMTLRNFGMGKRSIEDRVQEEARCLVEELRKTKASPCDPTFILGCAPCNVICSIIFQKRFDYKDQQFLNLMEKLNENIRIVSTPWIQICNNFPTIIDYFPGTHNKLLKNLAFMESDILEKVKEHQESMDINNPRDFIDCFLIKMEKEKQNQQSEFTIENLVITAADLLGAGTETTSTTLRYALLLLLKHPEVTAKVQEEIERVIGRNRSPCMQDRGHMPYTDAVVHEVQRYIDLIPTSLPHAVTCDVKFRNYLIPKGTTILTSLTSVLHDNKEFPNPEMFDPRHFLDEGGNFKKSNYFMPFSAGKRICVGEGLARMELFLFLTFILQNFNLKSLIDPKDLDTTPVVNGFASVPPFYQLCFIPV
Procedure: as §1, §2, §3

CYP2D6 = target: T3, CYP2D6 (Homo sapiens, UniProt P10635); experiment: CYP inhibition in HLM, CYP2D6; type: in vitro ADME; conditions: read-out: CYP inhibition (IC50 um) 2D6
T3 construct: from tissue; host or cells: liver microsomes (HLM)
T3 sequence (P10635 whole entry): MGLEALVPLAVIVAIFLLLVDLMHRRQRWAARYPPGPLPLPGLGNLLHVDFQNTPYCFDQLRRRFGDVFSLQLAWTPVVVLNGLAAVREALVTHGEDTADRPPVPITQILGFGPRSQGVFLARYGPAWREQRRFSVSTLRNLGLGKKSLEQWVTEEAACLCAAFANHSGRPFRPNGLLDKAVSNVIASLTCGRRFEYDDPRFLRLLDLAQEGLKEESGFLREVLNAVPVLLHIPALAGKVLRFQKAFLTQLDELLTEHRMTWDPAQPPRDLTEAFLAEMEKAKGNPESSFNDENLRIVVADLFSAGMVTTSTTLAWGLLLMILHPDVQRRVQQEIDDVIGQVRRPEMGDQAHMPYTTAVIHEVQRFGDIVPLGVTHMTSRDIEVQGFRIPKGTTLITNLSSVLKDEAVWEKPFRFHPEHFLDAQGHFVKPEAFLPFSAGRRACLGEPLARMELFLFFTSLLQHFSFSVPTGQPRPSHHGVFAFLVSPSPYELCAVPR
Procedure: as §1, §2, §3

[2] = read-out: Thermodynamic Solubility Solubility
[3] = read-out: Thermodynamic Solubility Solubility (um)

CC(C)(NC(=O)[C@H]1[C@@H]2CNC[C@H]1C2)c1ncc2c(Cl)cccn12 [Compound 7, (1R,5S,6r)-N-(2-(8-chloroimidazo[1,5-a]pyridin-3-yl)propan-2-yl)-3-azabicyclo[3.1.1]heptane-6-carboxamide]
No. of writhing's (KM mice): 10
Percentage of Inhibition (KM mice): 69.16%
Significant compared to the model group (KM mice): Yes
CLint scaled at 1 μM [1]: 18.4 mL/min/kg
half-life at 1 μM [1]: 2.25 h
solubility at 1 h (Solubility): 101.75 ± 0.03 µM (≈ 33.9 µg/mL)
solubility thermodynamic (Thermodynamic solubility; [2]): 1680 µg/mL
solubility thermodynamic (Thermodynamic solubility; [3]): 4440 µM
IC50 (CYP2C9): > 10 µM
IC50 (CYP2C19): > 10 µM
IC50 (CYP2D6): > 10 µM

CC(C)(NC(=O)[C@H]1[C@@H]2CNC[C@H]1C2)c1ncc2c(Br)cccn12 [Compound 8, (1R,5S,6r)-N-(2-(8-bromoimidazo[1,5-a]pyridin-3-yl)propan-2-yl)-3-azabicyclo[3.1.1]heptane-6-carboxamide]
No. of writhing's (KM mice): 3
Percentage of Inhibition (KM mice): 86.26%
Significant compared to the model group (KM mice): Yes
CLint scaled at 1 μM [1]: 2.98 mL/min/kg
half-life at 1 μM [1]: 9.71 h
solubility at 1 h (Solubility): 91.6 µM (≈ 34.6 µg/mL)
solubility thermodynamic (Thermodynamic solubility; [2]): 2080 µg/mL
solubility thermodynamic (Thermodynamic solubility; [3]): 4920 µM
IC50 (CYP2C9): > 10 µM
IC50 (CYP2C19): > 10 µM
IC50 (CYP2D6): > 10 µM

CC(C)(NC(=O)[C@H]1[C@@H]2CNC[C@H]1C2)c1nc(C2CC2)c2ccccn12 [Compound 9, (1R,5S,6r)-N-(2-(1-cyclopropylimidazo[1,5-a]pyridin-3-yl)propan-2-yl)-3-azabicyclo[3.1.1]heptane-6-carboxamide]
No. of writhing's (KM mice): 8
Percentage of Inhibition (KM mice): 62.34%
Significant compared to the model group (KM mice): Yes
CLint scaled at 1 μM [1]: 1.73 mL/min/kg
half-life at 1 μM [1]: 23.9 h
solubility at 1 h (Solubility): 130.5 ± 0.02 µM (≈ 44.2 µg/mL)
solubility thermodynamic (Thermodynamic solubility; [2]): 2250 µg/mL
solubility thermodynamic (Thermodynamic solubility; [3]): 6000 µM
IC50 (CYP2C9): > 10 µM
IC50 (CYP2C19): > 10 µM
IC50 (CYP2D6): > 10 µM

From US20240174693A1, “SOMATOSTATIN RECEPTOR SUBTYPE 4 (SSTR4) AGONISTS AND THEIR APPLICATIONS” (Humanwell Pharmaceutical US, priority 2022, published 2024)
